The record followed here is patent US11292791B2 (priority 2017, dated 2022).

The target in the assay is BRD4 (Homo sapiens (Human), UniProt O60885). The note with it: read-out: BRD4 IC50 (μM gmean).

The structures appear in SMILES notation.

`COC(=O)N1c2ccc3c(nc(C(O)c4ccccc4)n3C3CCC(C(=O)O)CC3)c2CC[C@@H]1C` (stereo partly drawn) [Example 708]: the IC50 lay in the range of 1 to 1000 µM.
Take `COC(=O)N1c2ccc3c(nc(C(C)Cn4cc(Cl)cn4)n3C3CCS(=O)(=O)C3)c2CC[C@@H]1C` (stereo partly drawn) [Example 709]: the IC50 was 1 to 1000 µM.
The value for `COC(=O)N1c2ccc3c(nc(C4(Cn5cccn5)CC4)n3[C@H]3CC[C@H](C(=O)O)CC3)c2CC[C@@H]1C` [Example 710] was 1 to 1000 µM.
The value for `COC(=O)N1c2ccc3c(nc(COC4CCCC4)n3[C@@H]3CCC[C@@H](C(=O)O)C3)c2CC[C@@H]1C` [Example 711] was 1 to 1000 µM; that for `COC(=O)N1c2ccc3c(nc(C(O)CC4CCC(F)(F)CC4)n3C3CCCC(C(=O)O)C3)c2CC[C@@H]1C` (stereo partly drawn) [Example 712] was 1 to 1000 µM.
In the case of `COC(=O)N1c2ccc3c(nc(Cn4cc(C(C)C)cn4)n3[C@H]3CC[C@H](C(=O)O)CC3)c2CC[C@@H]1C` [Example 714], the IC50 lay in the range of 1 to 1000 µM.
The value for `COC(=O)N1c2ccc3c(nc(C(NC(C)=O)c4ccccc4)n3C3CCC(C(=O)O)CC3)c2CC[C@@H]1C` (stereo partly drawn) [Example 717] was 1 to 1000 µM; that for `COC(=O)N1c2ccc3c(nc(Cc4cccc(C)c4)n3[C@@H]3CCC[C@@H](C(=O)O)C3)c2CC[C@@H]1C` [Example 718] was 1 to 1000 µM; that for `COC(=O)N1c2ccc3c(nc(C(C)Cc4ccc(F)c(F)c4)n3C3CCCC(C(=O)O)C3)c2CC[C@@H]1C` (stereo partly drawn) [Example 720] was 1 to 1000 µM.
With `COC(=O)N1c2ccc3c(nc(C[C@H]4CC[C@H](OC)CC4)n3[C@@H]3CCC[C@@H](C(=O)O)C3)c2CC[C@@H]1C` [Example 723] the figure was 1 to 1000 µM; with `COC(=O)N1c2ccc3c(nc(C(C)OC4CCOCC4)n3C3CCC(C(=O)O)CC3)c2CC[C@@H]1C` (stereo partly drawn) [Example 724], 1 to 1000 µM; with `COC(=O)N1c2ccc3c(nc(C(c4ccccc4)[S+](C)[O-])n3C3CCC(C(=O)O)CC3)c2CC[C@@H]1C` (stereo partly drawn) [Example 725], 1 to 1000 µM.
The value for `COC(=O)N1c2ccc3c(nc(CC4CCC(C#N)CC4)n3C3CCCC(C(=O)O)C3)c2CC[C@@H]1C` (stereo partly drawn) [Example 726] was 1 to 1000 µM; that for `COC(=O)N1c2ccc3c(nc(CC(C(=O)O)c4cccc(F)c4)n3C3CCCOC3)c2CC[C@@H]1C` (stereo partly drawn) [Example 728] was 1 to 1000 µM.
`COC(=O)N1c2ccc3c(nc(CC4CCC(OC)CC4)n3C3CCC(C(=O)O)CC3)c2CC[C@@H]1C` (stereo partly drawn) [Example 729]: the IC50 lay in the range of 1 to 1000 µM.
The value for `COC(=O)N1c2ccc3c(nc(C(C)C(=O)N4CCCC4)n3C3CCCC(C(=O)O)C3)c2CC[C@@H]1C` (stereo partly drawn) [Example 732] was 1 to 1000 µM; that for `COC(=O)N1c2ccc3c(nc(Cn4cc(C5CC5)cn4)n3[C@H]3CC[C@H](C(=O)O)CC3)c2CC[C@@H]1C` [Example 733] was 1 to 1000 µM.
The value for `COC(=O)N1c2ccc3c(nc(Cn4cc(Cl)cn4)n3[C@H]3CC[C@H](C(=O)O)CC3)c2CC[C@@H]1C` [Example 737] was 1 to 1000 µM; that for `COC(=O)N1c2ccc3c(nc(Cc4cnc(C)cn4)n3[C@@H]3CCC[C@@H](C(=O)O)C3)c2CC[C@@H]1C` [Example 738] was 1 to 1000 µM.
For the molecule `COC(=O)N1c2ccc3c(nc(Cc4ccc(OC)c(OC)c4)n3[C@H]3CC[C@H](C(=O)O)CC3)c2CC[C@@H]1C` [Example 740], the IC50 was in the range of 1 to 1000 µM.
Consider `COC(=O)N1c2ccc3c(nc(COC4CCOCC4)n3[C@@H]3CCC[C@@H](C(=O)O)C3)c2CC[C@@H]1C` [Example 741], for which the IC50 fell in the range of 1 to 1000 µM.
The value for `COC(=O)N1c2ccc3c(nc(C(C)Cc4cnn(C)c4)n3C3CCCC(C(=O)O)C3)c2CC[C@@H]1C` (stereo partly drawn) [Example 742] was 1 to 1000 µM.
With `COC(=O)N1c2ccc3c(nc(CCc4ccccc4C(=O)O)n3C3CCOCC3)c2CC[C@@H]1C` [Example 743] the figure was 1 to 1000 µM.
With `COC(=O)N1c2ccc3c(nc(Cc4ccc(C#N)cc4)n3[C@H]3CC[C@H](C(=O)O)CC3)c2CC[C@@H]1C` [Example 744] the figure was 1 to 1000 µM.

As a reminder, the IC50 is the midpoint of a concentration-inhibition curve.
